Results on 17 molecules are retold here after ChEMBL document CHEMBL5126512, “Current status of carbazole hybrids as anticancer agents” (Eur J Med Chem, 2022).

The test system of data set [1] is ASPC1. Briefly: Anticancer activity against human ASPC1 cells assessed as cell growth inhibition measured after 72 hrs by Cell-Titre Glo luminescent cell viability assay. In kind it is functional, cell-based. The note with it: ASPC1, 72 h.
The test system of data set [2] is SW1990. Briefly: Anticancer activity against human SW1990 cells assessed as cell growth inhibition measured after 72 hrs by Cell-Titre Glo luminescent cell viability assay. To be noted: SW1990, 72 h. In kind it is functional, cell-based.
Data set [3] concerns MCF7. Briefly: Antiproliferative activity against human MCF7 cells assessed as cell growth inhibition measured after 48 hrs by SRB assay. In kind it is functional, cell-based.
The test system of data set [4] is HOP-62. Briefly: Antiproliferative activity against human HOP-62 cells assessed as cell growth inhibition measured after 48 hrs by SRB assay. The format is functional, cell-based. To be noted: HOP-62, 48 h.
Data set [5] relates to SW-620. Briefly: Antiproliferative activity against human SW-620 cells assessed as cell growth inhibition measured after 48 hrs by SRB assay. In kind it is functional, cell-based. To be noted: SW-620, 48 h.
The test system of data set [6] is OVCAR-3. Briefly: Antiproliferative activity against human OVCAR-3 cells assessed as cell growth inhibition measured after 48 hrs by SRB assay. The format is functional, cell-based. To be noted: OVCAR-3, 48 h.
Data set [7] concerns OVCAR-4. Briefly: Antiproliferative activity against human OVCAR-4 cells assessed as cell growth inhibition measured after 48 hrs by SRB assay. The note with it: OVCAR-4, 48 h. The format is functional, cell-based.
For data set [8], the system named is 786-0. Briefly: Antiproliferative activity against human 786-0 cells assessed as cell growth inhibition measured after 48 hrs by SRB assay. The format is functional, cell-based. The note with it: 786-0, 48 h.
Data set [9] relates to UO-31. Briefly: Antiproliferative activity against human UO-31 cells assessed as cell growth inhibition measured after 48 hrs by SRB assay. The note with it: UO-31, 48 h. In kind it is functional, cell-based.
The subject of data set [10] is MDA-MB-231. Briefly: Antiproliferative activity against human MDA-MB-231 cells assessed as cell growth inhibition measured after 48 hrs by SRB assay. In kind it is functional, cell-based.
Data set [11] relates to Hs-578T. Briefly: Antiproliferative activity against human Hs-578T cells assessed as cell growth inhibition measured after 48 hrs by SRB assay. The format is functional, cell-based.
The test system of data set [12] is SNB-75. Briefly: Antiproliferative activity against human SNB-75 cells assessed as cell growth inhibition measured after 48 hrs by SRB assay. In kind it is functional, cell-based. To be noted: SNB-75, 48 h.
Data set [13] can be described thus: Cytotoxicity against human A875 cells assessed as cell growth inhibition measured after 72 hrs by MTT assay. In kind it is functional, cell-based. To be noted: A875, 72 h.
Data set [14] relates to HepG2. Briefly: Cytotoxicity against human HepG2 cells assessed as cell growth inhibition measured after 72 hrs by MTT assay. To be noted: HepG2, 72 h. The format is functional, cell-based.
A short description of data set [15]: Cytotoxicity against green monkey MARC145 cells assessed as cell growth inhibition measured after 72 hrs by MTT assay. In kind it is toxicity, cell-based, Chlorocebus aethiops.
Data set [16] concerns MCF7. Briefly: Cytotoxicity against human MCF7 cells assessed as cell growth inhibition measured after 72 hrs by MTT assay. In kind it is functional, cell-based. The note with it: MCF7, 72 h.
Data set [17] relates to MDA-MB-231. Briefly: Cytotoxicity against human MDA-MB-231 cells assessed as cell growth inhibition measured after 72 hrs by MTT assay. In kind it is functional, cell-based. To be noted: MDA-MB-231, 72 h.
The subject of data set [18] is HeLa. Briefly: Cytotoxicity against human HeLa cells assessed as cell growth inhibition measured after 72 hrs by MTT assay. The format is functional, cell-based. The note with it: pooled result: one value given for 3 cell lines, strains, targets or settings.
For data set [19], the system named is A549. Briefly: Cytotoxicity against human A549 cells assessed as cell growth inhibition measured after 24 hrs by MTT assay. The format is functional, cell-based. To be noted: A549, 24 h, pooled result: one value given for 4 cell lines, strains, targets or settings.
Data set [20] concerns HeLa. Briefly: Antiproliferative activity against human HeLa cells assessed as cell growth inhibition by MTT assay. The format is functional, cell-based.
Data set [21] has as its system MDA-MB-231. Briefly: Antiproliferative activity against human MDA-MB-231 cells assessed as cell growth inhibition by MTT assay. In kind it is functional, cell-based.
Data set [22] has as its system A498. Briefly: Antiproliferative activity against human A498 cells assessed as cell growth inhibition measured after 72 hrs by SRB assay. The format is functional, cell-based. To be noted: A498, 72 h.
Data set [23] deals with A549. Briefly: Antiproliferative activity against human A549 cells assessed as cell growth inhibition measured after 72 hrs by SRB assay. In kind it is functional, cell-based. The note with it: A549, 72 h.
The subject of data set [24] is HeLa. Briefly: Cytotoxicity against human HeLa cells assessed as cell growth inhibition by MTT assay. The format is functional, cell-based.
The test system of data set [25] is MCF7. Briefly: Cytotoxicity against human MCF7 cells assessed as cell growth inhibition by MTT assay. The format is functional, cell-based.
The test system of data set [26] is HEp-2. Briefly: Cytotoxicity against human HEp-2 cells assessed as cell growth inhibition by MTT assay. The format is functional, cell-based.
Data set [27] deals with MCF7. Briefly: Antiproliferative activity against human MCF7 cells assessed as cell growth inhibition by MTT assay. The format is functional, cell-based.
Data set [28] deals with COLO 205. Briefly: Antiproliferative activity against human COLO 205 cells assessed as cell growth inhibition by MTT assay. In kind it is functional, cell-based.
In data set [29] the test system is A549. Briefly: Antiproliferative activity against human A549 cells assessed as cell growth inhibition by MTT assay. The format is functional, cell-based.
The subject of data set [30] is HCT-116. Briefly: Cytotoxicity against human HCT-116 cells assessed as cell growth inhibition measured after 48 hrs by MTT assay. To be noted: HCT-116, 48 h. The format is functional, cell-based.
For data set [31], the system named is HepG2. Briefly: Cytotoxicity against human HepG2 cells assessed as cell growth inhibition measured after 48 hrs by MTT assay. The format is functional, cell-based. The note with it: HepG2, 48 h.
In data set [32] the test system is MCF7. Briefly: Cytotoxicity against human MCF7 cells assessed as cell growth inhibition measured after 48 hrs by MTT assay. In kind it is functional, cell-based. The note with it: MCF7, 48 h.
Data set [33] in a line: Cytotoxicity against human RPE-1 cells assessed as cell growth inhibition measured after 48 hrs by MTT assay. In kind it is toxicity, cell-based. The note with it: RPE-1 (TERT-RPE1) cells.
Data set [34] has as its system K562. Briefly: Antiproliferative activity against human K562 cells assessed as cell growth inhibition by MTT assay. The format is functional, cell-based.
Data set [35] relates to HCT-116. Briefly: Antiproliferative activity against human HCT-116 cells assessed as cell growth inhibition by MTT assay. The format is functional, cell-based.
Data set [36] relates to SK-OV-3. Briefly: Antiproliferative activity against human SK-OV-3 cells assessed as cell growth inhibition by MTT assay. The format is functional, cell-based.

In the case of `CCCCn1c2ccc(Br)cc2c2cc(/C=N/NC(=O)c3ccncc3)ccc21`, the concentration for half-maximal inhibition (IC50) in data set [1] and in data set [2] was 3420 nM throughout.
Turning to `Cc1c2ccncc2c(C(=O)NCc2ccccc2)c2c1[nH]c1ccccc12`, the IC50 in data set [3] (MCF7, 48 h) came out at 1710 nM; in data set [4], 1710 nM; in data set [5], 1710 nM; in data set [6] it was 1710 nM; in data set [7], 1710 nM; in data set [8], 1710 nM. The IC50 is 1710 nM in data set [9]; 1710 nM in [10] (MDA-MB-231, 48 h); 1710 nM in [11]; 1710 nM in data set [12].
In the case of `Cc1c(C(=O)NCCc2c[nH]c3ccccc23)ccc2c3ccccc3n(C)c12`, the IC50 in data set [13] and in data set [14] was over 53800 nM throughout. The half-maximal inhibitory concentration (IC50) at 72 h in [15] was over 53800 nM.
In the case of `COc1cc(NC(=O)Nc2cc(C)c3[nH]c4ccc(Br)cc4c3c2C)cc(OC)c1OC`, the IC50 in data set [16], in data set [17], in [14] and in data set [18] was 1930 nM in each case.
Regarding `COc1cc(-c2cc(-c3ccc4c(c3)c3ccccc3n4-c3nc(-c4ccc(Cl)cc4)ns3)on2)cc(OC)c1OCc1cc(-c2ccncc2)no1`, the IC50 in [19] is 10 nM.
`Oc1c(C(c2ccc(Br)cc2)N2CCCC2)ccc2[nH]c3ccccc3c12` (stereo not drawn): the 50% inhibitory concentration (IC50) in data set [20] and in data set [21] was 5400 nM throughout.
For the molecule `Cc1c2ccncc2c(C)c2c1[nH]c1ccccc12` [ELLIPTECINE], the IC50 amounted to 1050 nM in data set [16]; 1050 nM in data set [17]; 1050 nM in data set [14]; 1740 nM in data set [22]; 850 nM in data set [23]; 1050 nM in [18]. Further, the IC50 in data set [24], in data set [25] and in [26] was 9850 nM each time.
Regarding `COc1cc([C@@H]2c3cc4c(cc3[C@@H](O[C@@H]3O[C@@H]5CO[C@@H](C)O[C@H]5[C@H](O)[C@H]3O)[C@H]3COC(=O)[C@H]23)OCO4)cc(OC)c1O` [ETOPOSIDE], the IC50 in [19] was determined as 1970 nM.
In the case of `O=c1[nH]cc(F)c(=O)[nH]1` [FLUOROURACIL], the IC50 in data set [13] and in data set [14] was 72300 nM in each case. The 50% inhibitory concentration (IC50) at 72 h in data set [15] turned out to be 72300 nM.
With `CCCCCCn1c2ccccc2c2cc(/C=N/NC(=O)c3ccncc3)ccc21`, the IC50 in data set [1] and in data set [2] was 3420 nM throughout.
On to `COc1ccc2[nH]c3c(C)cc(-c4cc(-c5ccc(F)cc5)nc(N)n4)c(C)c3c2c1`, for which the concentration for half-maximal inhibition (IC50) in [27], in [28] and in [29] was 100 nM throughout.
With `Cc1c(C(=O)N/N=C/c2c[nH]c3ccccc23)ccc2c1[nH]c1ccccc12`, the concentration for half-maximal inhibition (IC50) in [14] was over 13300 nM.
Turning to `Nc1ccn([C@@H]2O[C@H](CO)[C@@H](O)C2(F)F)c(=O)n1` [GEMCITABINE], the IC50 in [1] is 35100 nM; in data set [2] it was 40200 nM.
As for `CCn1c2ccccc2c2cc(NC(=O)c3c(N)n[nH]c3Nc3ccccc3)ccc21`, the IC50 in [30], in data set [31] and in [32] was 2970 nM throughout. The IC50 at 48 h in data set [33] is over 100000 nM.
On to `CCn1c2ccccc2c2cc(NC(=O)c3cc4cccc(OC)c4oc3=O)ccc21`, for which the IC50 in data set [30], in data set [31] and in data set [32] was 900 nM in each case. In addition, in [33], the 50% inhibitory concentration (IC50) at 48 h was over 100000 nM.
As to `O=C(CCCn1c2ccc(Br)cc2c2cc(Br)ccc21)NCCN1CCNCC1`, the concentration for 50% growth inhibition (GI50) in data set [3] (MCF7, time 48 hrs) came out at 8000 nM; in [10] (MDA-MB-231, time 48 hrs) it was 4700 nM.
Turning to `O=Cc1c[nH]c2c1ccc1c3ccccc3n(CCCC(=O)NCCn3ccn4c5ccccc5cc34)c12`, the IC50 in [34], in [35], in data set [27], in [21] and in data set [36] was 9000 nM each time.
